Holding throughout (format): physicochemical
Data set [1] in a line: Adaptive perfusion (AP) IVRT with 100 kD MWCO mPES hollow fiber filter. As to conditions: AP method. An excerpt: The setup 1000 includes a fresh media reservoir 1002, a particulate filtering device 1004 attached to the fresh media tubing (to prevent particulate contamination), two peristaltic pumps (a first pump 1014 for the sample feed and a second pump 1006 for the fresh media), two additional reservoirs (a first reservoir 1008 for the retentate (also called the feed reservoir) and a second reservoir 1038 for the permeate (also called the permeate reservoir)), a pre-conditioned TFF filter (in particular, an HFF 1020, with first port 1022 and second port 1024 connected to a retentate volume and third port 1032 and fourth port 1040 connected to a permeate volume), a backpressure controlling valve 1028, a magnetic stirrer 1010, a stir plate 1012 for mixing the sample with the media, a pressure monitoring system with three pressure sensors (inlet sensor 1018, retentate sensor 1026, and permeate sensor 1034), a mass flow monitoring system (e.g., flow-meter 1036), a data acquisition system (e.g., computer with software), and a fluid circuit 1030 (e.g., tubing) for interconnecting the various components. HFF 1020 was a Spectrum MicroKros®, 100 kD MWCO, modified polyether sulfone (mPES) membrane, 20 cm^2 surface area (Repligen Corporation, CA, USA). An initial drug product sample of a particular concentration and/or volume was manually spiked into the first reservoir 1008 using conduit 1016.
Pure difluprednate solution and difluprednate polysorbate-80 micelles was evaluated using the setup 1000 of FIG. 10. For pure difluprednate solution, 200 μL of difluprednate solution (1 mg/mL in ethanol) was spiked (via conduit 1016) into 40 mL of release media (10 mM pH 7.4 phosphate buffer mixed with ethanol in the ratio of 80:20 v/v) in reservoir 1008 to reach an initial difluprednate concentration of 5 μg/mL. Ethanol was used as a co-solvent to prevent the precipitation of difluprednate in the media. Difluprednate concentrations in the retentate reservoir 1008 and permeate reservoir 1038 were determined in real time using an in-situ fiber optic UV-Vis system (Pion μDiss Profiler™, Billerica, MA). ZIM analysis was performed to remove polysorbate-80 interference by using wavelength within the range of 271-274 nm (exact ZIM wavelength varied between probes). For difluprednate polysorbate-80 micelles, 1 mL of difluprednate polysorbate-80 micelle solution (100 μg/mL in 3.6% w/v polysorbate-80) was spiked (via conduit 1016) into 40 mL of the release media (10 mM pH 7.4 phosphate buffer) in reservoir 1008 to obtain an initial difluprednate concentration of 2.5 μg/mL. Aliquots of retentate and permeate were collected periodically from the retentate reservoir 1008 and from the permeate tubing (between third port 1032 and permeate reservoir 1038), respectively, and subjected to UPLC analysis to determine difluprednate concentration. Appropriate dilution was performed for the retentate aliquots by using acetonitrile prior to UPLC analysis. The study was conducted at ambient room temperature (i.e., 23.5±1.5° C.).
Several TFF hollow fiber filter modules having different MWCO of 30 kD, 100 kD, 300 kD and 500 kD (Spectrum MicroKros®, modified polyether sulfone (mPES) membrane, 20 cm^2 surface area, Repligen Corporation, CA, USA) were screened initially to select an optimal MWCO for the TFF filter for performing the in vitro release studies. 100 kD MWCO was eventually selected considering the range of globule sizes to be evaluated for the nanoemulsions. 200 μL of nanoemulsion was spiked (via conduit 1016) directly into 40 mL of media (10 mM pH 7.4 phosphate buffer) in reservoir 1008 to provide an initial concentration of 2.5 μg/mL for difluprednate. Aliquots of retentate and permeate were collected periodically from the retentate reservoir 1008 and from the permeate tubing (between outlet 1031 and 1038), respectively, and subjected to UPLC analysis to determine difluprednate concentration. […]

The nature of data set [2]: Reverse-dialysis release/diffusion of pure difluprednate solution (USP 2 apparatus, 100 kD MWCO dialysis tubes). As to conditions: pH 7.4 phosphate buffer:ethanol 80:20, 34° C. The protocol: Release of difluprednate from pure drug solution was studied using a reverse-dialysis setup, where drug was transferred from outside a dialysis device to the inside. As compared to a dialysis configuration, the reverse-dialysis configuration provides an advantage in terms of allowing for better control of dilution and maximum drug concentration gradient across oil/water interface to drive the drug release. Diffusion of difluprednate through dialysis membrane was determined in a USP 2 apparatus setup (Vision Elite 8, Teledyne Hanson Research, with mini-vessels 800) using commercially available dialysis tubes 808 (Float-A-Lyzer G2, 100 kD MWCO, regenerated cellulose, Spectrum Labs, CA, USA), as shown in FIG. 8A. Each dialysis tube 808 was cleaned with 1.0% w/v polysorbate-80 solution in deionized water and subsequently washed thoroughly with deionized water. Dialysis tubes 808, containing about 1 mL of the release media (i.e., 10 mM pH 7.4 phosphate buffer mixed with ethanol in the ratio of 80:20 v/v), were suspended inside the USP 2 mini-vessels 800. Agitation was controlled at 100 rpm and the temperature was maintained at 34° C. Using conduit 806, 1 mL of difluprednate solution (1 mg/mL in ethanol) was spiked directly into the vessel 800, which contained 200 mL release media 802, in order to achieve an initial drug concentration of 5 μg/mL.
(§1) Within dialysis tube 808, difluprednate concentration (e.g., drug that had diffused through the membrane filter of dialysis device 808) was monitored in real time using an in-situ fiber optic probe 804, in particular a fiber optic UV-Vis system (Pion μDiss Profiler™, Billerica, MA). The scanning frequency was once every minute for the first 6 hours, then it switched to once every 5 minutes for the next 18 hours. After first 24 hours, the scanning frequency was changed to once every 10 minutes for the next 40 hours. For the last 104 hours, the scanning frequency was once every 30 min. The total experimental time was 168 hours (7 days). Pure difluprednate solution diluted with release medium at the same concentration of 5 μg/mL was also monitored in parallel as a control to determine any possible change in drug concentration, e.g., due to degradation. Prior to the start of the experiment, UV signals were calibrated using various concentrations of difluprednate standard solutions (0.05, 0.10, 0.50, 1.00, 2.00, 3.00, 4.00, and 6.00 μg/mL). Zero Intercept Method (ZIM) analysis was performed to remove polysorbate-80 interference by using wavelength within the range of 271-274 nm (exact ZIM wavelength varied between probes). Ethanol was used as a co-solvent to prevent the precipitation of difluprednate in the release media.

The nature of data set [3]: Control: pure difluprednate solution diluted with release medium, monitored for degradation. As to conditions: control sample, at 24 hrs; 5 μg/mL in release medium; n=1. On the procedure: as §1

As to `CCCC(=O)O[C@]1(C(=O)COC(C)=O)CC[C@H]2[C@@H]3C[C@H](F)C4=CC(=O)C=C[C@]4(C)[C@@]3(F)[C@@H](O)C[C@@]21C` [Pure drug (DFP) solution, Difluprednate], in data set [1] (permeate (FIG. 12A)), the “time to reach 90% of drug release” value is listed as “less than 15 minutes”. Besides, in data set [1] (Mean ± SD, n = 3), the “Permeate Maximum Drug Release” value came to 93.7 ± 5.5% and the “Permeate t50” value came out at 5.3 ± 0.6 min. Moreover, the “Permeate k* (first-order rate constant)” value in data set [1] (Q = 100*(1 − e^−k*t), Mean ± SD, n = 3, room temperature) stood at 0.146 ± 0.018 min⁻¹. The “Retentate k* (first-order rate constant)” value in data set [1] (Q = 100*e^−k*t, Mean ± SD, n = 3, room temperature) was found to be 0.211 ± 0.056 min⁻¹. In addition, the “difluprednate transferred across the membrane (into the permeate)” value in data set [1] (in less than 15 minutes) is “more than 90%”. Further, in data set [2] (100 kD MWCO), the “drug diffused at plateau” value is recorded as “about 75%” and the “time for difluprednate concentration to reach plateau” value was about 8 h. For the same compound, in data set [2] (100 kD MWCO, 100 rpm, 5 μg/mL), the “time for 50% of difluprednate to diffuse across the dialysis membrane” value is listed as “more than 3 hours”. Further, in data set [2] (inside dialysis tube), the “time after which decrease in difluprednate concentration was observed (degradation in alkaline media)” value is “about 10 hours”. The “pure drug remaining in the bulk media” value in data set [3] came to 85%.

The values above are taken from patent US20240069001A1, “ADAPTIVE PERFUSION SYSTEMS AND METHODS FOR DRUG RELEASE TESTING” (The United States of America, as represented by the …, priority 2020, published 2024).
